Patent US6469177B1, “Surface active N-Halamine compounds” (Auburn University, priority 1997, dated 2002)

Tested on: S. aureus (ATCC 6538)
Test: Efficacy of N-halamine compounds against S. aureus in aqueous solution (Example 20)
Assay type: cell-based, Staphylococcus aureus
Conditions: pH 7.0; 22 ° C.; chlorine-demand-free water; 5 or 10 milligrams/liter total chlorine
Description: The bacterial efficacies of the compounds against S. aureus (ATCC 6538) in chlorine-demand-free water were determine by using techniques employed previously in extensive detail by Williams et al., Appl. Environ. Microbial., 54:2583 (1987). Solutions containing 10^6 CFU final cell densities of bacteria were prepared and treated with the various disinfectant compounds described in examples 1-17 at either 5 or 10 milligrams/liter total chlorine concentration which was previously determined by titration using a stock solution with sodium thiosulfate. Aliquots were removed at several predetermined times, and the active halogen was quenched by sterile 0.02 normal sodium thiosulfate. Serial dilutions were made into sterile saline, and three 25 microliter aliquots of each dilution were applied to the dried surface of a Petri dish containing nutrient agar. After incubation at 37° C. for 48 hours, the three replicates for each dilution were counted and averaged. Control samples containing no disinfectant, or in some cases, unchlorinated precursor compounds, were handled in the same manner. […] Inactivation of the organism was considered to be at least 99.9999% when no colonies were detected in the thiosulfate-quenched aliquots.

C=CC(=O)OCC1(CC)COC(=O)N1Br (stereo not shown) [Polymer 1a-Br, 3-bromo-4-(acryloxymethyl)-4-ethyl-2-oxazolidinone]
Contact Time for 6-log Inactivation of S. aureus: <5 min
